Experimental data: ChEMBL document CHEMBL1201862, “PubChem BioAssay data set” (2004)
Active and inactive are the calls of the source. Cut-off read from the data, not from the text of the source: actives have a measured IC50 and inactives only a lower limit.

Tests used:
Assay type in all cases: functional
Caspase-3 = biological target: T1, Caspase-3 (Homo sapiens, UniProt P42574); assay: inhibition of recombinant caspase-3 activity – biochemical, luminescence, set 2, selectivity assay for SENP protease inhibitor project, SAR follow-up (AID 588599)
T1 sequence (P42574 whole entry): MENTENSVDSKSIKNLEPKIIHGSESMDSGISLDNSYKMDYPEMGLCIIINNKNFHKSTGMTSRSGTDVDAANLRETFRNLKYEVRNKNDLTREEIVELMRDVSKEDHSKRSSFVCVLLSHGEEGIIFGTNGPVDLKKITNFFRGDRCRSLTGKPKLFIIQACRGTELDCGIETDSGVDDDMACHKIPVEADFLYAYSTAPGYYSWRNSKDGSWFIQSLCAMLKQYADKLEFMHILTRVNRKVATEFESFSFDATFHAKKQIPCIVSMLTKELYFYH

[1] = biological target: T2, Sentrin-specific protease 7 (Homo sapiens, UniProt Q9BQF6); assay: inhibition of human SENP7 cleavage activity – biochemical, luminescence, set 2, SAR follow-up (AID 588600)
T2 sequence (Q9BQF6 whole entry): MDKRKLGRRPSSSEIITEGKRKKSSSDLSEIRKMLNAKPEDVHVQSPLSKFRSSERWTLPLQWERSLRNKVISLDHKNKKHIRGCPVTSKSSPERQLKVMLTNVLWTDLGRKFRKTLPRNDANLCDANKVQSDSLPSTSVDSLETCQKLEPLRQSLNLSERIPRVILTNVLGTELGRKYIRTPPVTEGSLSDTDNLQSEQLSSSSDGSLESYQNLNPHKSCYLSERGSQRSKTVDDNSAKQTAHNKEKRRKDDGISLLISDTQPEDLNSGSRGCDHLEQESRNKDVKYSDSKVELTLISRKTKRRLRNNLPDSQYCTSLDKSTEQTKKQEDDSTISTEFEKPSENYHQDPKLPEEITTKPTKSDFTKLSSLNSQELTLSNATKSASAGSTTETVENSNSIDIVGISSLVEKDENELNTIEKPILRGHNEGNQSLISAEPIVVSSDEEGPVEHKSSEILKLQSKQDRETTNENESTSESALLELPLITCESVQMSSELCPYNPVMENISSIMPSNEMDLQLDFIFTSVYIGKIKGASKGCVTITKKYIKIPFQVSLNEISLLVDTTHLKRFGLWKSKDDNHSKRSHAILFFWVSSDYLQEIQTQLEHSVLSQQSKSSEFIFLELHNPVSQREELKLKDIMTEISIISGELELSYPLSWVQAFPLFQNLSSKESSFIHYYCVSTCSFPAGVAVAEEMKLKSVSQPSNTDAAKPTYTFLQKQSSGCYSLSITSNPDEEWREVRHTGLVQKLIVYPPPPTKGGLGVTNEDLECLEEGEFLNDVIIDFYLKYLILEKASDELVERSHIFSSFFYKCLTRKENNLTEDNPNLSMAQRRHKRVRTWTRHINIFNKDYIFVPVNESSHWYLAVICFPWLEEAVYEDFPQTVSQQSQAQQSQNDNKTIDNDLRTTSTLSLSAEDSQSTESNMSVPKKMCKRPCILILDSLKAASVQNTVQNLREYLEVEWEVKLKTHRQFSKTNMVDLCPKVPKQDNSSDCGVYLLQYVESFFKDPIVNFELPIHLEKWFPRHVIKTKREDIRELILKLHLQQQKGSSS

[2] = biological target: T3, Sentrin-specific protease 8 (Homo sapiens, UniProt Q96LD8); assay: inhibition of sentrin protease 8 – biochemical, luminescence, set 2, SAR follow-up (AID 588601)
T3 sequence (Q96LD8 whole entry): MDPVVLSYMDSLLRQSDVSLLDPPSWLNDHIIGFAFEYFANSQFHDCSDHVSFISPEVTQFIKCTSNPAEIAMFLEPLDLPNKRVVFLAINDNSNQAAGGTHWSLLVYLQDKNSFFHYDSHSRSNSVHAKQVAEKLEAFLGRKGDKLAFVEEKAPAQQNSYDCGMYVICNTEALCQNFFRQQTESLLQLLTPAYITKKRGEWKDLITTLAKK

[3] = biological target: T4, Sentrin-specific protease 6 (Homo sapiens, UniProt Q9GZR1); assay: inhibition of human SENP6 catalytic domain – biochemical, luminescence, set 2, SAR follow-up (AID 588598)
T4 sequence (Q9GZR1 whole entry): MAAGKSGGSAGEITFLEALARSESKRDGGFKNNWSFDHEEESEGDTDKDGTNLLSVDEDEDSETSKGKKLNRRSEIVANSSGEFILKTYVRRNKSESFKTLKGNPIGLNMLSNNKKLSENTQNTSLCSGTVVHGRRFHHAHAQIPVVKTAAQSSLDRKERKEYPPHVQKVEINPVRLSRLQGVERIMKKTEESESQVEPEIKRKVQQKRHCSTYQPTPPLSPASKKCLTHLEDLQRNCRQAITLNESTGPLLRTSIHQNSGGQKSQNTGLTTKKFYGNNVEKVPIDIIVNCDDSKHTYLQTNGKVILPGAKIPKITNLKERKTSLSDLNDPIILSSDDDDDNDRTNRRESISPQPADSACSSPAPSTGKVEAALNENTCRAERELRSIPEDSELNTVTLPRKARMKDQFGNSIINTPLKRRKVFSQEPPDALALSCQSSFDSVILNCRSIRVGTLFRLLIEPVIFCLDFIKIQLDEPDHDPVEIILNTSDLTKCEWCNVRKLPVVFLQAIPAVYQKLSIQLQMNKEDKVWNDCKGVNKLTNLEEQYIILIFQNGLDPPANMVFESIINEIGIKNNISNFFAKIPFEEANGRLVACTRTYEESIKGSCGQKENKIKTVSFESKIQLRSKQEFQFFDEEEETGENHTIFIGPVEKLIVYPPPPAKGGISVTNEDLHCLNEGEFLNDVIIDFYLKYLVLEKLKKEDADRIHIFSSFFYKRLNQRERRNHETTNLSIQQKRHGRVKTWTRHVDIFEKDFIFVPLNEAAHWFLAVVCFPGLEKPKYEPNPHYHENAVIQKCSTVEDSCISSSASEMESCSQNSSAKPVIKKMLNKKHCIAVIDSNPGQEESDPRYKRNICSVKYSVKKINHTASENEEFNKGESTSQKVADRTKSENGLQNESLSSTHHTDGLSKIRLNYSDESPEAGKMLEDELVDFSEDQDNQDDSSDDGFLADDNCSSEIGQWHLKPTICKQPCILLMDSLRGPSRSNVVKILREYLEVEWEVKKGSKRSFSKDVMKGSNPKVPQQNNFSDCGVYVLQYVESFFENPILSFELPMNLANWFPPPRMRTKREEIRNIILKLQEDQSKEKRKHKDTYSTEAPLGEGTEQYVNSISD

- IC50 (Caspase-3): > 99 µM (inactive)
- IC50 [1]: > 99 µM (inactive)
- IC50 [3]: > 99 µM (inactive)
SMILES: CCCN(CCC)S(=O)(=O)c1ccc2[nH]cc(/C=N/NC(=S)Nc3ccc(F)c(Cl)c3)c2c1
- IC50 [2]: > 99 µM (inactive)
